One data set concerns T. b. brucei GVR35-VSL2. Description: Mouse model of stage 1 and stage 2 HAT, bioluminescence imaging. Format: in vivo, T. b. brucei in female CD-1 mice. To be noted: for Side head bioluminescence - Total Flux: D23, individual mice, Supp_Fig13; for parasitaemia in brains of saline-perfused mice: stage 2, day 23, ex vivo; for bioluminescence signal in the body, stage 2 treatment: treatment from day 21. From the text:
An alternative mouse model for stage 1 (acute) and stage 2 (CNS-involved) HAT has been developed using a transgenic cell line derived from the pleiomorphic T. b. brucei GVR35 that expresses red-shifted firefly luciferase[17],[18]. […] T. b. brucei GVR35-infected mice present stage 1 disease by day 7 post infection with progression to stage 2 by day 21. By injecting the mouse with luciferin, the level of parasitaemia can be estimated in real time by monitoring the luminescence. Unlike monomorphic Lister 427 T. b. brucei, the pleiomorphic GVR35 T. b. brucei is controlled by a quorum-sensing mechanism resulting in the significant increase in survival time in mice and lower blood parasitaemia that occurs in waves. This extended survival time is also accompanied by parasite dissemination to multiple tissues and organs, including the skin, adipose tissue, lung and brain, with parasite loads increasing over time[17],[19].
For the mouse model of stage 1 and stage 2 HAT T. b. brucei GVR35-VSL2 parasites (3 × 10^4) were injected into a single donor female CD-1 mouse intraperitoneally. Once infection was established, starting on day 7 for stage 1 studies and day 21 for stage 2 studies, mice were either left untreated (n = 3) or dosed by oral gavage with CTCB compound in Cremophor EL: EtOH: D-PBS (30:10:60 v/v; n = 6). Progression of T. b. brucei GVR35-VSL2 infection was monitored primarily by in vivo bioluminescence imaging of infected mice using an IVIS Spectrum (PerkinElmer). For stage 1 studies, imaging of infected mice was performed before treatment on day 7 post infection and on days following the treatment (days 8, 9 and 14). Imaging on groups of three mice was performed 12 min after intraperitoneal injection of 150 mg kg^−1 D-luciferin (Promega) in PBS. For stage 2 studies, mice were imaged prior to treatment on day 21, and subsequently on days 22 and 23. On day 23, 24 h after the final dose, mice were sacrificed by cervical dislocation and perfused with PBS containing 15 g L^−1 glucose to allow ex vivo imaging of whole brains (Supplementary Figs. 12 and 13).
Female CD-1 (Charles River UK; 6-8 weeks old) mice were infected with 3 × 10^4 T. b. brucei GVR35-VSL2 bloodstream form parasites intraperitoneally. T. b. brucei GVR35-VSL2 expresses red-shifted luciferase and provides a better signal for imaging (13). Once infection was established, starting on day 7 for Stage 1 studies and day 21 for Stage 2 studies, mice were either left untreated (n=3) or dosed by oral gavage with CTCB compound in Cremophor EL: EtOH : D-PBS (30:10:60 v/v) (n = 6). Additional groups of mice (n=3) that received either a single intraperitoneal dose of diminazene aceturate (Sigma-Aldrich) at 40 mg/kg in sterile water or 0.1 ml melarsoprol gel (14) containing 3.6 mg melarsoprol, applied topically for 3 consecutive days, served as controls for Stage 1 and Stage 2 treatment studies, respectively.
Progression of T. b. brucei GVR35-VSL2 infection was monitored primarily by in vivo bioluminescence imaging of infected mice using an IVIS Spectrum (PerkinElmer) as described previously (5). For stage 1 studies, imaging of infected mice was performed before treatment on day 7 post-infection and in days following the treatment (days 8, 9 and 14). Imaging on groups of three mice was performed 12 minutes after intraperitoneal injection of 150 mg/kg D-luciferin (Promega) in PBS. For stage 2 studies, mice were imaged prior to treatment on day 21 and subsequently on days 22 and 23. On day 23, 24 hours after the final dose, mice were sacrificed by cervical dislocation and perfused with phosphate-buffered saline containing 15 g.L^−1 glucose to allow ex vivo imaging of whole brains. To this end, 100 μl D-luciferin was administered onto the brain surface and imaging performed immediately thereafter.

Data set [1] in a line: Plasma protein binding, human plasma. Format: in vitro ADME. The conditions noted are these: equilibrium dialysis, read-out: Human plasma protein binding fu(%). As to the method: A HepG2 cytotoxicity assay was used to determine a cellular selectivity index. HepG2 cells were seeded into 96-well plates in EMEM medium. Compounds were assessed for their effect upon cellular viability (Supplementary Methods 5.1). Inhibition of CYP450 was determined using kits from BD Biosciences (Supplementary Methods 5.2). Metabolic stability was determined using mouse […] tested at a single concentration of 5 µM. Plasma protein binding was determined using mouse and human plasma at a single concentration of 10 µM (Supplementary Methods 5.4). All PK studies in mice were carried out by Pharmidex (Supplementary Methods 6.1).
Compounds were tested for protein binding using mouse and human plasma at a single concentration of 10 µM and measured by equilibrium dialysis between plasma and buffer. The amount of parent was determined on both sides of the membrane after incubating for 4 hours at 37 °C. The samples were crashed with acetonitrile and put through protein precipitation plates. The eluent was analysed by LC/MS or LC/MS/MS. Output was percentage bound.
(In equilibrium dialysis only unbound substance equilibrates across the membrane.)

Where [2] appears, read: treatment during stage 1 (day 7).

Values joined by “and” are separate entries in the source; they are usually repeats but may differ in a detail not shown here. Equal entries are not always repeated.

Take `CN(C)CCn1ccc2c(ccn2Cc2ccc(F)c(Br)c2)c1=O` [CTCB-508, 1-[(3-Bromo-4-fluorophenyl)methyl]-5-[2-(dimethylamino)ethyl] pyrrolo[3,2-c]pyridin-4-one]: in the data set with T. b. brucei GVR35-VSL2, the “Side head bioluminescence - Total Flux” value is 7.338E+06 p/s and 1.920E+06 p/s and 5.353E+06 p/s and 4.553E+06 p/s and 1.258E+07 p/s and 2.035E+07 p/s; the “parasitaemia in brains of saline-perfused mice” value is on record as “very clear reduction in parasitaemia”; the “bioluminescence signal in the body, stage 2 treatment” value was “fast and significant signal reduction in the body”. Also, the fraction unbound at 4 h, 10 µM in data set [1] was 0.21.

On to `CN(C)CCn1ccc2c(ccn2Cc2ccc(Cl)c(Br)c2)c1=O` [CTCB-470, 1-[(3-Bromo-4-chlorophenyl)methyl]-5-[2-(dimethylamino)ethyl] pyrrolo[3,2-c]pyridin-4-one], for which, in the data set on T. b. brucei GVR35-VSL2, the “Side head bioluminescence - Total Flux” value is 1.100E+07 p/s and 7.724E+06 p/s and 5.606E+06 p/s and 1.306E+06 p/s and 2.050E+07 p/s and 2.702E+06 p/s; the “parasitaemia in brains of saline-perfused mice” value is “very clear reduction in parasitaemia”; the “bioluminescence signal in the body, stage 2 treatment” value is “fast and significant signal reduction in the body”. Also, the fraction unbound at 4 h, 10 µM in data set [1] is 0.032.

For `CN(C)CCn1ccc2c(ccn2Cc2ccc(Cl)c(Cl)c2)c1=O` [CTCB-405, 1-[(3,4-Dichlorophenyl)methyl]-5-[2-(dimethylamino)ethyl] pyrrolo[3,2-c]pyridin-4-one], in the data set on T. b. brucei GVR35-VSL2 (setting [2]), the “detection of parasites in blood delayed to” value is listed as 14 day post infection; the “effect on parasitaemia, stage 1 treatment” value is “reduced parasitaemia in the body and blood of mice”. Also, the fraction unbound at 4 h, 10 µM in data set [1] was determined as 0.063.

(Values after paper PMC7887271, “Fast acting allosteric phosphofructokinase inhibitors block trypanosome glycolysis and cure acute African trypanosomiasis in mice” (Nature Communications, 2021).)
